In brackets after ≈: the same amount, converted by molar mass. Where two headings read alike, the source gives them in different places.
Legend:
[1] = Solubility of the organic additives in water; conditions: for solubility: water, 25 °C, thermodynamic from solid
Source text: For the determination of the solubility of the organic additives described herein, the GC-based method described above in connection with the solubilities of the monomers may be used. […] The method is basically measuring residual amount of CD in a saturated solution after drying.

[2] = cyclodextrins; values taken from Sabadini et al.; 25°C; cited from earlier work

SMILES | solubility [1] [mg/mL] | Solubility in water [2] [mg/mL] | further results
CC(=O)OCC(COC(C)=O)OC(C)=O [1,2,3-propanetriol triacetate] | 72 | – | –
OCCCCO [1,4-butandiol] | – | – | Solubility in water ([1]; additives other than cyclodextrins, 25°C): miscible
CCCCCO [1-pentanol] | 22.4 (≈ 254 mM) | – | –
CCCCCCCO [Heptanol] | 1.74 (≈ 15 mM) | – | –
OC[C@H]1O[C@@H]2O[C@H]3[C@H](O)[C@@H](O)[C@@H](O[C@H]4[C@H](O)[C@@H](O)[C@@H](O[C@H]5[C@H](O)[C@@H](O)[C@@H](O[C@H]6[C@H](O)[C@@H](O)[C@@H](O[C@H]7[C@H](O)[C@@H](O)[C@@H](O[C@H]1[C@H](O)[C@H]2O)O[C@@H]7CO)O[C@@H]6CO)O[C@@H]5CO)O[C@@H]4CO)O[C@@H]3CO [α-cyclodextrin] | – | 129.5 (≈ 133 mM) | –
OC[C@H]1O[C@@H]2O[C@H]3[C@H](O)[C@@H](O)[C@@H](O[C@H]4[C@H](O)[C@@H](O)[C@@H](O[C@H]5[C@H](O)[C@@H](O)[C@@H](O[C@H]6[C@H](O)[C@@H](O)[C@@H](O[C@H]7[C@H](O)[C@@H](O)[C@@H](O[C@H]8[C@H](O)[C@@H](O)[C@@H](O[C@H]9[C@H](O)[C@@H](O)[C@@H](O[C@H]1[C@H](O)[C@H]2O)O[C@@H]9CO)O[C@@H]8CO)O[C@@H]7CO)O[C@@H]6CO)O[C@@H]5CO)O[C@@H]4CO)O[C@@H]3CO [γ-cyclodextrin] | – | 249.2 (≈ 192 mM) | –
